# Source: US20250367348A1, “3D PRINTING OF 3-LAYERED RETINA AND CHOROID TISSUE” (Ramot at Tel-Aviv University Ltd., priority 2023, published 2025)
# How the values were obtained:
# [1] = test system: engineered RPE layer (blood vessel-RPE construct); assay: Calcium imaging (Fluo-4-AM) after ATP addition; type: cell-based; settings: 100 μM ATP added to medium; followed by slow decrease to baseline
# Experimental: Calcium imaging: Fluo-4-AM was prepared by adding 45 μL DMSO and 45 μL Pluronic-DMSO to a 50 μg vial of Fluo-4-AM.Fluo-4-AM was diluted with HBSS in a ratio of 1:50 and the cells were incubated for 1 hour in 37° C. The cells were washed for 30 minutes in HBSS in 37° C. The sample was placed in an inverted microscope on a heating plate adjusted to 37° C. Fluo-4-AM emission is at 506 nm and excitation is at 494 nm. Images were acquired at a rate of 3.15 Hz. 10 seconds After starting the recording 100 μM ATP were added to the medium. The data was analyzed using ImageJ. TEM: TEM Samples were fixated in 2.5% Glutaraldehyde in PBS over night at 4° C. After several washes in PBS, the samples were post fixed in 1% OsO4 in PBS for 2 h at 4° C. Dehydration was carried out in graded ethanol followed by embedding in Glycid ether. Thin sections were mounted on Formvar/Carbon coated grids, stained with uranyl acetate and lead citrate and examined in Jeol 1400-Plus transmission electron microscope (Jeol, Japan). Images were captured using SIS Megaview III and iTEM the Tem imaging platform (Olympus).SEM: Samples for SEM were fixed with 2.5% glutaraldehyde (24 h, at […]), followed by a graded incubation series in ethanol-water solutions (50-100% (v/v)). […]
# [2] = Rheological shear thinning measurements of native and cross-linked ECM hydrogel; type: physicochemical; settings: 37° C.
# Experimental: Rheological Properties: Rheological measurements were taken using Discovery HR-3 hybrid Rheometer (TA Instruments, DE) with 20 mm diameter parallel plate geometry with a Peltier plate to maintain the sample temperature. The samples were loaded at a temperature of 4° C., which was then raised to 37° C. to induce gelation; during which the oscillatory moduli of samples were monitored at a fixed frequency of 1 Hz and a strain of 1%.
# The mechanical properties of an exemplary native ECM-based hydrogel (derived from omentum) and of cross-linked hydrogels were assessed by rheological measurements. Shear thinning measurements were conducted at 37° C. Data are presented as mean±SD, n=3. P-values were calculated using a Comparison of Fits test with an Extra Sum of Squares F-test.
# [3] = Compressive (bulk) modulus of hydrogel; type: physicochemical; settings: compression at 100 μm s^−1; n=3
# Experimental: The compressive modulus measurements were performed using a Discovery HR-3 Hybrid Rheometer (TA Instruments, DE) with a 20 mm diameter parallel plate geometry and a Peltier plate to maintain the sample temperature. Bulk modulus tests were performed by compressing the samples at a fixed rate of 100 μm s^−1.
# Alongside the rheological testing, the bulk mechanical properties of the hydrogel were also assessed. Samples were compressed, and the linear elastic modulus was calculated. Data are presented as mean±SD, n=3.
# [4] = High-resolution imaging of hydrogel fiber morphology and pore size; type: physicochemical
# Experimental: Data in FIG. 7I is presented as mean±SD, n=3, and each image had at least 180 pores whose area was determined using ImageJ.
change in gel viscosity ([2]; increasing SOx concentration to 0.07%),change in gel viscosity ([2]; sample cross-linked with 0.03% SOx vs control gel),hydrogel bulk (linear elastic) modulus with and without exposure to SOx [3],internal fiber morphology of ECM hydrogel after reinforcement ([4]; before vs after exposure to SOx),"pore size (holes in the mesh) before and after crosslinking ([4]; n=3, at least 180 pores per image)",Compound,intracellular calcium levels [1]
–,–,–,–,–,"Nc1ncnc2c1ncn2[C@@H]1O[C@H](COP(=O)(O)OP(=O)(O)OP(=O)(O)O)[C@@H](O)[C@H]1O [ATP, adenosine triphosphate]",immediately increased intracellular calcium levels in a significant manner
smaller increase,large increase,significant reinforcement,without altering the internal morphology,no difference was observed,Oxidized sucrose [SOx],–
